We go through 32 compounds from patent US20240246937A1 (MERCK SHARP & DOHME LLC, priority 2021, published 2024).

Each structure is given as a SMILES string.

Chain of recombinant IL4I1 (Q96RQ9 22-567): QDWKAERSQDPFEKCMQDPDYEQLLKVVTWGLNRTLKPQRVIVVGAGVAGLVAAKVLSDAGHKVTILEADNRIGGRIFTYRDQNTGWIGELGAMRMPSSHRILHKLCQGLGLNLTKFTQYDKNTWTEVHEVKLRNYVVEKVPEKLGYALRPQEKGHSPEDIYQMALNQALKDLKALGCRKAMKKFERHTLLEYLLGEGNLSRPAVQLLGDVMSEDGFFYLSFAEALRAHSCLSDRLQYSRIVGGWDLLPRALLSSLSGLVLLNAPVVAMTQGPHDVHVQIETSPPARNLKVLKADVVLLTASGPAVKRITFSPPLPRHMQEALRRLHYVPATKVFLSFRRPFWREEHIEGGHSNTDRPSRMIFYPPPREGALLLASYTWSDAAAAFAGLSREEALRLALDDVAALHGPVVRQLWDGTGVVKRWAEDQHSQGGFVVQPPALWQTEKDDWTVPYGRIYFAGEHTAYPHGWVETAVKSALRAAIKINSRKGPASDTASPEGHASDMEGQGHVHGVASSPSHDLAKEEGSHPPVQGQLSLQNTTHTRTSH

The target in the experiment is recombinant IL4I1 (Homo sapiens (Human), UniProt Q96RQ9). Put plainly: IL4I1 Enzymatic Assay (Amplex Red/HRP coupled fluorescence detection of H2O2). It is filed as biochemical. The conditions noted are these: 240 min; recombinant IL4I1, four-hour pre-incubation with compound. The method, then:
Interleukin 4 inducible protein 1 (IL4I1) is an L-amino oxidase that catalyzes the oxidation of aromatic residues (Phe, Trp and Tyr): L-amino acid+H2O+O2→2-oxo acid+NH3+H2O2. Equal molar of H2O2 and the corresponding alpha-ketoacid are produced when IL4I1 and substrate are added. In this assay, the hydrogen peroxide generated by IL4I1 is then detected through a coupled reaction with Amplex® Red (10-acetyl-3,7-dihydroxyphenoxazine) and horseradish peroxidase (HRP) to produce resorufin product that could be detected in the form of fluorescence signals. The assessment of the inhibitory effect of small molecules (EC50) on IL4I1 is measured by the effectiveness of the compounds to inhibit the production of H2O2.
Using this assay, the potency (EC50) of each compound was determined from a ten-point (1:3 serial dilution) titration curve using the following outlined procedure. To each well of a black flat-bottom Greiner (Cat #781076) 384 well-plate, 25 nL of compound (0.1% DMSO in final assay volume of 25 μL) was dispensed, followed by the addition of 12.5 μL of 1× assay buffer (50 mM Hepes 7.0 and 0.005% Tween20 (Sigma, Cat #P8341; low peroxide grade)) containing 2 nM of recombinant IL4I1 (R&D Systems, Cat #5684-AO-020). Plates were placed in an ambient temperature humidified chamber for a four-hour pre-incubation with compound. Subsequently, each reaction was initiated by the addition of 12.5 μL 1× assay buffer containing 2 mM of each aromatic amino acids (Phe/Tyr/Trp), 0.1 mM Amplex Red and 2 U/mL of HRP. The final reaction in each well of 25 μL consisted of 1 nM of IL4I1, 1 mM of each residues (Phe, Tyr and Trp), 0.05 mM Amplex Red and 1 U/mL of HRP. It should be noted that the concentrations of Amplex Red and HRP used here were in excess such that the conversion of H2O2 to resorufin product occurred instantaneously and was non-rate limiting. Reactions were allowed to proceed for 120 minutes followed by fluorescence readout on a Spectramax with the following set parameters: 544 nm excitation/590 nm emission, 570 nm cutoff (EnVision is an alternative reader). Dose-response curves were generated by plotting percent effect (% product conversion; Y-axis) vs. Log10 compound concentrations (X-axis). EC50 values were calculated using a non-linear regression, four-parameters sigmoidal dose-response model and are shown in Potency Table 1.
The EC50 is the concentration that produces a half-maximal response. Consider `O=C1C(=O)N(C2CCCC2)CCN1Cc1ncc(-c2cn[nH]c2)cc1F` [Example 16, 1-cyclopentyl-4-((3-fluoro-5-(1H-pyrazol-4-yl)pyridin-2-yl)methyl)piperazine-2,3-dione], for which the EC50 came to 16 nM.
To `O=C1C(=O)N(C2CCCC2)CCN1Cc1ccc(-c2cncs2)nc1` [Example 17, 1-cyclopentyl-4-((6-(thiazol-5-yl)pyridin-3-yl)methyl)piperazine-2,3-dione] belongs 7 nM; to `O=C1C(=O)N(C2CCCC2)CCN1Cc1ccc(-c2cnco2)nc1` [Example 18, 1-cyclopentyl-4-((6-(oxazol-5-yl)pyridin-3-yl)methyl)piperazine-2,3-dione], 41 nM; to `O=C1C(=O)N(C2CCCC2)CCN1Cc1ccc(-c2cncs2)cc1F` [Example 19, 1-cyclopentyl-4-(2-fluoro-4-(thiazol-5-yl)benzyl)piperazine-2,3-dione], 7 nM.
Turning to `O=C1C(=O)N(C2CCC2)CCN1Cc1ccc(-c2cccc(F)c2)nn1` [Example 20, 1-cyclobutyl-4-((6-(3-fluorophenyl)pyridazin-3-yl)methyl)piperazine-2,3-dione], the 50% effective concentration (EC50) was 5 nM.
Turning to `O=C1C(=O)N(C2CCC2)CCN1Cc1ccc(-c2cccc(F)c2F)nn1` [Example 21, 1-cyclobutyl-4-((6-(2,3-difluorophenyl)pyridazin-3-yl)methyl)piperazine-2,3-dione], the EC50 came out at 14 nM.
On to `O=C1C(=O)N(C2CCC2)CCN1Cc1ccc(-c2cc(F)cc(F)c2)nn1` [Example 22, 1-cyclobutyl-4-((6-(3,5-difluorophenyl)pyridazin-3-yl)methyl)piperazine-2,3-dione], for which the EC50 came to 22 nM.
Regarding `O=C1C(=O)N(C2CCCC2)CCN1Cc1ccc(-c2cn[nH]c2)cc1F` [Example 23, 1-cyclopentyl-4-(2-fluoro-4-(1H-pyrazol-4-yl)benzyl)piperazine-2,3-dione], the EC50 turned out to be 21 nM.
As for `O=C1C(=O)N(C2CCCC2)CCN1Cc1ccc(-c2cn[nH]c2)nc1` [Example 24, 1-((6-(1H-pyrazol-4-yl)pyridin-3-yl)methyl)-4-cyclopentylpiperazine-2,3-dione], the figure is 30 nM.
To `O=C1C(=O)N(C2CCC2)CCN1Cc1ccc(-c2cn[nH]c2)nn1` [Example 25, 1-((6-(1H-pyrazol-4-yl)pyridazin-3-yl)methyl)-4-cyclobutylpiperazine-2,3-dione] belongs 21 nM.
To `O=C1C(=O)N(C2CCC2)CCN1Cc1ccc(-c2ccccc2)cn1` [Example 26, 1-cyclobutyl-4-((5-phenylpyridin-2-yl)methyl)piperazine-2,3-dione] belongs 6 nM; to `O=C1C(=O)N(C2CCC2)CCN1Cc1nnc(-c2cccc(F)c2)s1` [Example 27, 1-cyclobutyl-4-((5-(3-fluorophenyl)-1,3,4-thiadiazol-2-yl)methyl)piperazine-2,3-dione], 5 nM.
On to `O=c1c(=O)n(C2CCC2)ccn1Cc1nnc(-c2cccc(F)c2)s1` [Example 28, 1-cyclobutyl-4-((5-(3-fluorophenyl)-1,3,4-thiadiazol-2-yl)methyl)-1,4-dihydropyrazine-2,3-dione], for which the EC50 is 8 nM.
As for `O=C1C(=O)N(C2CCC2)CCN1Cc1nnc(-c2ccc(F)cc2)s1` [Example 29, 1-cyclobutyl-4-((5-(4-fluorophenyl)-1,3,4-thiadiazol-2-yl)methyl)piperazine-2,3-dione], the figure is 9 nM.
On to `O=c1c(=O)n(C2CCC2)ccn1Cc1nnc(-c2ccc(F)cc2)s1` [Example 30, 1-cyclobutyl-4-((5-(4-fluorophenyl)-1,3,4-thiadiazol-2-yl)methyl)-1,4-dihydropyrazine-2,3-dione], for which the EC50 was found to be 8 nM.
To `O=C1C(=O)N(C23CC(C2)C3)CCN1Cc1nnc(-c2ccccc2F)s1` [Example 31, 1-(bicyclo[1.1.1]pentan-1-yl)-4-((5-(2-fluorophenyl)-1,3,4-thiadiazol-2-yl)methyl)piperazine-2,3-dione] belongs 6 nM; to `O=C1C(=O)N(C23CC(C2)C3)CCN1Cc1nnc(-c2ccc(F)cc2)s1` [Example 32, 1-(bicyclo[1.1.1]pentan-1-yl)-4-((5-(4-fluorophenyl)-1,3,4-thiadiazol-2-yl)methyl)piperazine-2,3-dione], 5 nM; to `O=C1C(=O)N(C2CCC2)CCN1Cc1nnc(-c2ccccc2F)s1` [Example 33, 1-cyclobutyl-4-((5-(2-fluorophenyl)-1,3,4-thiadiazol-2-yl)methyl)piperazine-2,3-dione], 8 nM.
Turning to `O=c1c(=O)n(C2CCC2)ccn1Cc1nnc(-c2ccccc2F)s1` [Example 34, 1-cyclobutyl-4-((5-(2-fluorophenyl)-1,3,4-thiadiazol-2-yl)methyl)-1,4-dihydropyrazine-2,3-dione], the concentration giving a half-maximal response (EC50) was 34 nM.
On to `O=c1c(=O)n(C2CCCC2)ccn1Cc1nnc(-c2ccc(F)cc2)s1` [Example 35, 1-cyclopentyl-4-((5-(4-fluorophenyl)-1,3,4-thiadiazol-2-yl)methyl)-1,4-dihydropyrazine-2,3-dione], for which the EC50 was found to be 3 nM.
In the case of `O=c1c(=O)n(C23CC(C2)C3)ccn1Cc1nnc(-c2ccc(F)cc2)s1` [Example 36, 1-(bicyclo[1.1.1]pentan-1-yl)-4-((5-(4-fluorophenyl)-1,3,4-thiadiazol-2-yl)methyl)-1,4-dihydropyrazine-2,3-dione], the EC50 was determined as 6 nM.
With `O=C1C(=O)N(C2CCCC2)CCN1Cc1ccc(-c2cccnc2)nn1` [Example 37, 1-cyclopentyl-4-((6-(pyridin-3-yl)pyridazin-3-yl)methyl)piperazine-2,3-dione], the EC50 turned out to be 18 nM.
For the compound `O=C1C(=O)N(C23CC(C2)C3)CCN1Cc1ccc(-c2ccccc2)nn1` [Example 38, 1-(bicyclo[1.1.1]pentan-1-yl)-4-((6-phenylpyridazin-3-yl)methyl)piperazine-2,3-dione], the EC50 was 23 nM.
To `O=c1c(=O)n([C@H]2C[C@H]3C[C@H]3C2)ccn1Cc1nnc(-c2ccccc2)s1` [Example 39, 1-((cis)-bicyclo[3.1.0]hexan-3-yl)-4-((5-phenyl-1,3,4-thiadiazol-2-yl)methyl)-1,4-dihydropyrazine-2,3-dione] belongs 3 nM; to `O=C1C(=O)N(C2CC3CC3C2)CCN1Cc1nnc(-c2ccc(F)cc2)s1` (stereo not drawn) [Example 40, 1-((cis)-bicyclo[3.1.0]hexan-3-yl)-4-((5-(4-fluorophenyl)-1,3,4-thiadiazol-2-yl)methyl)piperazine-2,3-dione], 4 nM; to `O=c1c(=O)n([C@H]2C[C@H]3C[C@H]3C2)ccn1Cc1nnc(-c2ccc(F)cc2)s1` [Example 41, 1-((cis)-bicyclo[3.1.0]hexan-3-yl)-4-((5-(4-fluorophenyl)-1,3,4-thiadiazol-2-yl)methyl)-1,4-dihydropyrazine-2,3-dione], 2 nM.
In the case of `O=C1C(=O)N([C@H]2C[C@H]3C[C@H]3C2)CCN1Cc1nnc(-c2cccc(F)c2)s1` [Example 42, 1-((cis)-bicyclo[3.1.0]hexan-3-yl)-4-((5-(3-fluorophenyl)-1,3,4-thiadiazol-2-yl)methyl)piperazine-2,3-dione], the EC50 amounted to 5 nM.
As for `O=c1c(=O)n([C@H]2C[C@H]3C[C@H]3C2)ccn1Cc1nnc(-c2cccc(F)c2)s1` [Example 43, 1-((cis)-bicyclo[3.1.0]hexan-3-yl)-4-((5-(3-fluorophenyl)-1,3,4-thiadiazol-2-yl)methyl)-1,4-dihydropyrazine-2,3-dione], the figure is 3 nM.
To `O=C1C(=O)N([C@H]2C[C@H]3C[C@H]3C2)CCN1Cc1nnc(-c2ccccc2F)s1` [Example 44, 1-((cis)-bicyclo[3.1.0]hexan-3-yl)-4-((5-(2-fluorophenyl)-1,3,4-thiadiazol-2-yl)methyl)piperazine-2,3-dione] belongs 7 nM; to `O=c1c(=O)n([C@H]2C[C@H]3C[C@H]3C2)ccn1Cc1nnc(-c2ccccc2F)s1` [Example 45, 1-((cis)-bicyclo[3.1.0]hexan-3-yl)-4-((5-(2-fluorophenyl)-1,3,4-thiadiazol-2-yl)methyl)-1,4-dihydropyrazine-2,3-dione], 5 nM; to `O=C1C(=O)N(C2CCCC2)CCN1Cc1cnc(-c2ccccc2F)cn1` [Example 46, 1-cyclopentyl-4-((5-(2-fluorophenyl)pyrazin-2-yl)methyl)piperazine-2,3-dione], 13 nM.
For the compound `O=c1c(=O)n([C@H]2C[C@H](c3ccccc3)C2)ccn1Cc1nnc(-c2ccccc2)s1` [Example 47, 1-((5-phenyl-1,3,4-thiadiazol-2-yl)methyl)-4-((trans)-3-phenylcyclobutyl)-1,4-dihydropyrazine-2,3-dione], the half-maximal effective concentration (EC50) is 3 nM.
